Results: patent EP0559700B1, “NOVEL PILOCARPINE DERIVATIVES AND PROCESS FOR THEIR PREPARATION” (Santen Oy, priority 1990, dated 1992)
Like-named read-outs stand apart in the source and are kept apart here.

Assays:
[1] = Enzyme hydrolysis in plasma/buffer pH 7.4 mixture (80%-20%); type: in vitro ADME; settings: for half-life: 80% plasma/buffer
Experimental: The half-times of enzyme hydrolysis of the novel bispilocarpates according to the invention and of known pilocarpic acid diesters were determined in a plasma/buffer pH 7.4-mixture (80%-20%) at 37°C. The degradation constants (k) for the compounds tested and determined from the plot showing the logarithm of remaining diester as a function of time and the half-lives T½ are shown in the Table II below. From the results it may be seen that in […] the stable test compound degrades under the influence of an enzyme (esterase) to a O,O'-dihydrogen bispilocarpate intermediate, which spontaneously degrades at pH 7.40 to pilocarpine. Consequently the effect of the bispilocarpate intermediate on the rate of formation of pilocarpine is very significant. The formation of pilocarpine was almost complete irrespective of the epimerization possibility of the intermediate. The amount of isopilocarpine formed varied from 0 to 10%, as also the pilocarpine formed epimerized, if the duration of hydrolysis was very long.

[2] = Corneal permeability in a diffusion chamber; type: in vitro ADME, rabbit
From the text: The corneal permeability of pilocarpine hydrochloride and its most promising prodrug derivatives as evaluated from the tests described above were studied in a diffusion chamber, wherein the migration of the compound from the delivering phase (epithelium side) thorugh the cornea to the acceptor side (endothelium side) of the diffusion chamber. In the study, rabbit eye cornea was used. From the samples taken from the acceptor side of the diffusion chamber, both the concentration of the prodrug and the liberated drug were determined in the acceptor phase with HPLC. Thus the rate of degradation of the prodrug in the cornea was determined. The permeability coefficients (Papp, cm/s) calculated from the permeability rate (μmol/min), their […] deviations (RSD) and the number of tests, are given in the Table II below.

[3] = Stability of the compounds: buffer hydrolysis (half-times, shelf-life); type: physicochemical
Experimental: The stability of the test compounds were tested with buffer hydrolyses. The ionic strength (µ) of the buffers was 0.5, the pH-values used 4.2, 6.0, 7.4 and 9.0 and the temperatures used 37°C, 50 °C, 60 °C and 70 °C.
The half-times T½ calculated on basis of the degradation constant k obtained for each studied compound (T½=0.693/k; k = 2.303 x kk, wherein kk is the angular coefficient of the plot which illustrates the logarithm of the remaining ester as a function of time) in a buffer solution of said pH, are indicated in the Table I below, which values refer to half-times at 37°C.
The storage stability of the derivatives under different storage conditions may be estimated by determining the degradation constants at different temperatures and calculating the degradation constant k at the desired temperature from the equation of the plot corresponding to the Arrhenius equation (1), wherein log k is given as a function of [1/T]. Log k = Log A -(Ea)/(2.303R)x(1)/(T) [formula]
From the degradation constant (k) obtained at the desired temperature the shelf-life-time t10% (t10% = 0.104/k) which indicates the time during which 10% of the drug has degraded may be calculated. By way of example it may be mentioned that the t10%-time of O,O'-dipropionyl (1,4-xylylene) bispilocarpate at 4 °C is almost 500 days.

[4] = Lipophilicity: partition coefficient (octanol-buffer) and capacity factor by RP-HPLC; type: physicochemical; settings: for chromatographic logP: reverse phase HPLC, 22°C, read-out: Capacity factor (22°C) k' (converted)
From the text: The lipophilicity of the compounds were studied by determining the partition coefficients (P) of the compounds at a pH of 7.40. The measurements were made either in an octanol-buffer mixture by determining the concentration of the compound to be studied in the buffer phase by HPLC. The partition coefficients of the very lipophilic compounds were, however, determined by reverse phase (RP) liquid chromatography (HPLC) from the retention time (Beckmann 116 pump and 166 UV detector; Marathon autom. sample feeder). […] From the results it can be seen that the compounds of the invention are considerably more lipophilic than the pilocarpine.

[5] = pKa-value determination by titration in a water-ethanol mixture (50%-50%); type: physicochemical; settings: water-ethanol 50:50; titration in water-ethanol mixture (50%-50%)
[6] = Lipophilicity: partition coefficient (octanol-buffer) and capacity factor by RP-HPLC; type: physicochemical; settings: pH 5.0
[7] = plasma/buffer pH 7.4 (80%-20%), 37°C, read-out: half-times (T½) in plasma (80%), 37°C
[8] = plasma/buffer pH 7.4 (80%-20%), 37°C
[9] = rabbit eye cornea, diffusion chamber, epithelium side to endothelium side, read-out: Permeability coefficient Papp
[10] = buffer pH 6.00, ionic strength 0.5, 37°C, read-out: Half-times in buffers at 37°C, T½, pH 6.00 (converted)
[11] = buffer pH 9.00, ionic strength 0.5, 37°C, read-out: Half-times in buffers at 37°C, T½, pH 9.00 (converted)
[12] = pH 4.2, buffer pH 4.20, ionic strength 0.5, 37°C, read-out: Half-times in buffers at 37°C, T½, pH 4.20 (converted)
[13] = pH 7.4, buffer pH 7.40, ionic strength 0.5, 37°C, read-out: Half-times in buffers at 37°C, T½, pH 7.40 (converted)
[14] = determined from the equation log k'= 0.182 Log P - 0.4086 (RP-HPLC retention)

| SMILES | half-life [1, 7] [days] | Degradation coefficient (k) in plasma (80%), 37°C [1, 8] [min⁻¹] | Papp [2, 9] [×10⁻⁶ cm/s] | chromatographic logP ([4]; rp-hplc) | pKa [5] | half-life [3, 10] [days] | half-life [3, 11] [days] | half-life [3, 12] [days] | half-life [3, 13] [days] | other results |
| --- | --- | --- | --- | --- | --- | --- | --- | --- | --- | --- |
| CC[C@H](C(=O)OCc1ccccc1)[C@H](COC(=O)c1cccc(Cl)c1)Cc1cncn1C [3-chloro-benzoyl, benzyl, reference compound] | 0.0153 | 0.03132 | 7.2 | – | – | – | – | – | – | – |
| CC[C@H](C(=O)OCc1ccc(COC(=O)[C@@H](CC)[C@H](COC(C)=O)Cc2cncn2C)cc1)[C@H](COC(C)=O)Cc1cncn1C [Example 9, O,O'-Diacetyl (1,4-xylylene) bispilocarpate] | – | – | – | 0.146 | 6.03 | – | – | – | – | half-life ([3]; buffer, pH 4.2): 165 days; half-life ([3]; buffer, pH 6): 48.4 days; half-life ([3]; buffer, pH 7.4): 11.4 days; half-life ([3]; buffer, pH 9): 1.42 days; Partition coefficient log P ([4]; pH 7.4): 3.0432^1; Capacity factor (22°C) k' ([4]; rp-hplc): 1.3987; half-life ([1]; pH 7.4): 0.00625 days; Degradation coefficient (k) in plasma (80%), 37°C ([1]; pH 7.4): 0.0737 min⁻¹; Papp ([2]; rabbit): 9.3 ×10⁻⁶ cm/s |
| CCC(=O)OC[C@H](Cc1cncn1C)[C@H](CC)C(=O)OCc1ccc(COC(=O)[C@@H](CC)[C@H](COC(=O)CC)Cc2cncn2C)cc1 [Example 10, O,O'-Dipropionyl (1,4-xylylene) bispilocarpate] | 0.00417 | 0.1184 | 30.5 | 0.362 | 5.8 | 50.6 | 1.96 | 91.8 | 16.7 | shelf-life-time t10% (time during which 10% of the drug has degraded) ([3]; at 4 °C, calculated from the Arrhenius plot): ~500 days |
| CCCC(=O)OC[C@H](Cc1cncn1C)[C@H](CC)C(=O)OCc1ccc(COC(=O)[C@@H](CC)[C@H](COC(=O)CCC)Cc2cncn2C)cc1 [Example 11, O,O'-Dibutyryl (1,4-xylylene) bispilocarpate] | 0.00764 | 0.06149 | 21.5 | 0.603 | 6 | 46.4 | 5.71 | 250 | 7.38 | Partition coefficient log P [4, 14]: 5.5604^2 |
| CCCCC(=O)OC[C@H](Cc1cncn1C)[C@H](CC)C(=O)OCc1ccc(COC(=O)[C@@H](CC)[C@H](COC(=O)CCCC)Cc2cncn2C)cc1 [Example 12, O,O'-Divaleryl (1,4-xylylene) bispilocarpate] | 0.00833 | 0.05734 | 18.2 | 0.868 | 6 | – | 0.292 | – | – | Partition coefficient log P [4, 14]: 7.0165^2 |
| CC[C@H](C(=O)OCc1ccc(COC(=O)[C@@H](CC)[C@H](COC(=O)C2CC2)Cc2cncn2C)cc1)[C@H](COC(=O)C1CC1)Cc1cncn1C [Example 13, O,O'-Dicyclopronylcarbonyl (1,4-xylylene) bispilocarpate] | 0.00972 | 0.04998 | 15.8 | 0.392 | 6 | 352 | 14.1 | 2640 | 148 | Partition coefficient log P ([4]; determined with an octanol-buffer-mixture, pH 7.40, 22 °C): 4.2015^1 |
| CC[C@H](C(=O)OCc1ccccc1)[C@H](COC(=O)c1ccc(C(=O)OC[C@H](Cc2cncn2C)[C@H](CC)C(=O)OCc2ccccc2)cc1)Cc1cncn1C [Example 19, O,O'-Terephtaloyl (dibenzyl) bispilocarpate] | – | – | – | 0.865 | 6 | 38 | 1.58 | 65.9 | 2.29 | Partition coefficient log P [4, 14]: 7.0000^2; half-life ([1]; pH 7.4): 0.149 days; Degradation coefficient (k) in plasma (80%), 37°C ([1]; pH 7.4): 0.00322 min⁻¹ |
| CC[C@H](C(=O)OCCCCCOC(=O)[C@@H](CC)[C@H](COC(=O)C1CC1)Cc1cncn1C)[C@H](COC(=O)C1CC1)Cc1cncn1C [Example 21, O,O'-Dicyclopropylcarbonyl (1,5-pentylene) bispilocarpate] | 0.00903 | – | – | – | – | – | – | – | – | half-life ([3]; buffer, pH 4.2, 50 °C, pH 4.20, read-out: Chemical hydrolysis t½, pH 4.20 (converted)): 193 days; half-life ([3]; buffer, pH 7.4, 50 °C, pH 7.40, read-out: Chemical hydrolysis t½, pH 7.40 (converted)): 23 days; half-life ([3]; buffer, 50 °C, pH 6.00, read-out: Chemical hydrolysis t½, pH 6.00 (converted)): 98.7 days; logD [6]: 0.401 |
| CC[C@H](C(=O)OCc1ccccc1)[C@H](COC(C)=O)Cc1cncn1C [acetyl, benzyl, reference compound] | 0.0111 | 0.04353 | 11.7 | – | – | 144 | 3.29 | 320 | 22.8 | – |
| CC[C@H](C(=O)OCc1ccccc1)[C@H](COC(=O)c1ccccc1)Cc1cncn1C [benzoyl, benzyl, reference compound] | 0.0125 | 0.038 | 8.7 | – | – | 203 | 4.62 | 444 | 85.1 | – |
| CCC(=O)OC[C@H](Cc1cncn1C)[C@H](CC)C(=O)OCc1ccccc1 [propionyl, benzyl, reference compound] | 0.00417 | 0.108 | 14.3 | – | – | 222 | 3.92 | 90.8 | 31.2 | – |
| CCCCC(=O)OC[C@H](Cc1cncn1C)[C@H](CC)C(=O)OCc1ccccc1 [valeryl, benzyl, reference compound] | 0.00625 | 0.07876 | 11.5 | – | – | – | 12.6 | 356 | 48.7 | – |
